Experimental data published in ChEMBL document CHEMBL1137185, “Cytotoxic effects and reversal of multidrug resistance by ibogan and related indole alkaloids” (Bioorg Med Chem Lett, 2004).
Converted amounts (≈) assume the structure as drawn.

What was measured:
KB [1] = experiment: Cytotoxic activity against vincristine-resistant human oral epidermoid carcinoma cell line (KB/VJ300); assay type: functional, cell-based
KB [2] = experiment: Cytotoxic activity against vincristine-sensitive human oral epidermoid carcinoma cell line(KB/S); assay type: functional, cell-based

## CCOC1[C@H]2C[C@H]([C@H](C)O)[C@@H]3N1CCc1c([nH]c4ccccc14)[C@]3(C(=O)OC)C2 (some centres not stated)
KB [1]
  IC50: > 25 µg/mL
KB [2]
  IC50: > 25 µg/mL

## COC(=O)[C@@]12C[C@@H]3C[C@H]([C@@H](C)O)[C@@H]1N(CCc1c2[nH]c2ccccc12)C3
KB [1]
  IC50: 3.5 µg/mL (≈ 9.87 µM)
KB [2]
  IC50: 25 µg/mL (≈ 70.5 µM)

## CC[C@H]1C[C@H]2C[C@@]3(C(=O)OC)c4[nH]c5ccc(OC)cc5c4CCN(C2C#N)[C@@H]13 (some centres not stated)
KB [1]
  IC50: 7 µg/mL (≈ 17.8 µM)
KB [2]
  IC50: 9.4 µg/mL (≈ 23.9 µM)

## COC(=O)[C@@]12C[C@@H]3C[C@H]([C@@H](C)O)[C@@H]1N(CCc1c2[nH]c2cc(OC)ccc12)C3
KB [1]
  IC50: > 25 µg/mL
KB [2]
  IC50: > 25 µg/mL

## COC(=O)[C@]12C[C@H]3CC4[C@H](C)OCN(CCc5c1n(c1ccccc51)C3O)[C@@H]42 (some centres not stated)
KB [1]
  IC50: 4 µg/mL (≈ 10.5 µM)
KB [2]
  IC50: 25 µg/mL (≈ 65.4 µM)

## COC(=O)[C@]12C[C@H]3CC4[C@H](C)OCN(CCc5c1n(c1cc(OC)ccc51)C3=O)[C@@H]42 (some centres not stated)
KB [1]
  IC50: > 25 µg/mL
KB [2]
  IC50: > 25 µg/mL

## COC(=O)N1c2ccccc2C23CCN4CCCC5(CCC12[C@](O)(C(=O)OC)C5)[C@H]43 (some centres not stated)
KB [1]
  IC50: 0.64 µg/mL (≈ 1.55 µM)
KB [2]
  IC50: > 25 µg/mL

## C[C@H](O)[C@H]1C[C@H]2C[C@H]3c4[nH]c5ccccc5c4CCN(C2)[C@@H]13
KB [1]
  IC50: 7.8 µg/mL (≈ 26.3 µM)
KB [2]
  IC50: 16.1 µg/mL (≈ 54.3 µM)

## CCC1C[C@H]2C[C@@]3(C(=O)OC)c4[nH]c5ccccc5c4CCN(C2=O)[C@@H]13 (some centres not stated)
KB [1]
  IC50: > 25 µg/mL
KB [2]
  IC50: > 25 µg/mL

## COC(=O)[C@@]12C[C@@H]3C[C@@H]([C@H](C)O)[C@@H]1NCCc1c2n(c2cc(OC)ccc12)[C@H]3O
KB [1]
  IC50: > 25 µg/mL
KB [2]
  IC50: > 25 µg/mL

## CCOC1[C@H]2C[C@H]([C@@H](C)O)[C@@H]3N1CCc1c([nH]c4ccccc14)[C@]3(C(=O)OC)C2 (some centres not stated)
KB [1]
  IC50: > 25 µg/mL
KB [2]
  IC50: > 25 µg/mL

## COC(=O)[C@@]12C[C@H]3C[C@@H](C(C)=O)[C@@H]1NCCc1c2n(c2ccccc12)C3O (some centres not stated)
KB [1]
  IC50: 2 µg/mL (≈ 5.43 µM)
KB [2]
  IC50: 25 µg/mL (≈ 67.9 µM)

## CC[C@H]1C[C@H]2C[C@@]3(C(=O)OC)c4[nH]c5ccccc5c4CCN(C2C#N)[C@@H]13 (some centres not stated)
KB [1]
  IC50: 1.4 µg/mL (≈ 3.85 µM)
KB [2]
  IC50: 2.2 µg/mL (≈ 6.05 µM)

## COC(=O)[C@@]12C[C@@H]3C[C@H]([C@H](C)O)[C@@H]1N(CCc1c2[nH]c2ccccc12)C3
KB [1]
  IC50: 8.5 µg/mL (≈ 24 µM)
KB [2]
  IC50: > 25 µg/mL

## CC[C@H]1C[C@H]2C[C@@]3(C(=O)OC)c4[nH]c5cc(OC)ccc5c4CCN(C2C#N)[C@@H]13 (some centres not stated)
KB [1]
  IC50: 1.1 µg/mL (≈ 2.8 µM)
KB [2]
  IC50: 1.9 µg/mL (≈ 4.83 µM)

## CC[C@H]1C[C@@H]2C[C@@]3(C(=O)OC)c4c(c5ccccc5n4C2O)CCN[C@@H]13 (some centres not stated)
KB [1]
  IC50: 2.5 µg/mL (≈ 7.05 µM)
KB [2]
  IC50: 3.5 µg/mL (≈ 9.87 µM)

## COC(=O)[C@@]12C[C@@H]3C[C@H]([C@@H](C)O)[C@@H]1N(CCc1c2[nH]c2ccccc12)C3=O
KB [1]
  IC50: > 25 µg/mL
KB [2]
  IC50: > 25 µg/mL

## CC[C@H]1C[C@H](CO)C[C@@]2(C(=O)OC)c3[nH]c4ccccc4c3CCN[C@@H]12
KB [1]
  IC50: > 25 µg/mL
KB [2]
  IC50: > 25 µg/mL

## COC(=O)[C@@]12C[C@@H]3C[C@H](C(C)(O)O)[C@@H]1N(CCc1c2[nH]c2cc(OC)ccc12)C3
KB [1]
  IC50: 14.5 µg/mL (≈ 36.2 µM)
KB [2]
  IC50: > 25 µg/mL

## CCOC1[C@H]2C[C@H](CC)[C@@H]3N1CCc1c([nH]c4ccccc14)[C@]3(C(=O)OC)C2 (some centres not stated)
KB [1]
  IC50: 13 µg/mL (≈ 34 µM)
KB [2]
  IC50: > 25 µg/mL

## CC[C@H]1C[C@@H]2CN3CCc4c([nH]c5ccccc45)C(C)(C2)[C@H]13
KB [1]
  IC50: > 25 µg/mL
KB [2]
  IC50: > 25 µg/mL

## CC[C@H]1C[C@@H]2CN3CC[C@]4(O)C(=Nc5ccccc54)[C@](C(=O)OC)(C2)[C@H]13 [CORONARIDINE HYDROXYINDOLENINE]
KB [1]
  IC50: > 25 µg/mL
KB [2]
  IC50: > 25 µg/mL

## CC[C@H]1C[C@@H]2CN3CCc4c([nH]c5ccccc45)[C@](C(=O)OC)(C2)[C@H]13 [CORONARIDINE]
KB [1]
  IC50: 2.6 µg/mL (≈ 7.68 µM)
KB [2]
  IC50: 11.5 µg/mL (≈ 34 µM)

## CC[C@H]1C[C@@H]2CN3CCc4c([nH]c5cc(OC)ccc45)[C@](C(=O)OC)(C2)[C@H]13 [ISOVOACANGINE]
KB [1]
  IC50: > 25 µg/mL
KB [2]
  IC50: > 25 µg/mL

## COC(=O)[C@@]12C[C@@H]3C[C@H]([C@H](C)O)[C@@H]1N(CCc1c2[nH]c2cc(OC)ccc12)C3 [ISOVOACRISTINE]
KB [1]
  IC50: 18.8 µg/mL (≈ 48.9 µM)
KB [2]
  IC50: > 25 µg/mL

## CC[C@H]1C[C@@H]2CN3CCc4c([nH]c5ccc(OC)cc45)[C@](C(=O)OC)(C2)[C@H]13 [VOACANGINE]
KB [1]
  IC50: > 25 µg/mL
KB [2]
  IC50: > 25 µg/mL
